# Values of other authors, collected in patent publication US10188773B2, “Compositions and devices of poly-4-hydroxybutyrate” (Tepha, Inc., priority 2013, dated 2019).
# Conditions: metabolism in the body; Nelson et al. 1981, Sendelbeck et al. 1985
smiles,measurement,value
"O=C(O)CCCO [4HB, 4-hydroxybutyric acid]",half-life,approximately 27 minutes
